Assay [1] concerns M. kansasii 235/80 and M. kansasii 6509/96. As to the kind of experiment: In vitro antimycobacterial activity (MIC). The note with it: Mycobacterium kansasii, read-out: MIC M. kansasii. Format: cell-based.
The target in assay [2] is T1, AChE from electric eel (EeAChE) (Electrophorus electricus, UniProt O42275).
T1 construct: Acetylcholinesterase used was obtained from electric eel (Electrophorus electricus L; EeAChE); purchased Sigma-Aldrich (Prague, Czech Republic); host or cells: electric eel (natural source)
As to the kind of experiment: biochemical. The note with it: for IC50: electric eel AChE, mean ± SD, n = three independent experiments; for Selectivity BuChE/AChE (selectivity index, SI): ratio of IC50 for BuChE/IC50 for AChE. The procedure:
(§1) Newly synthesized N-alkyl-2-[4-(trifluoromethyl)benzoyl]hydrazine-1-carboxamides 2a–2q were evaluated for their in vitro potency to inhibit AChE from electric eel (EeAChE) and BuChE from equine serum (EqBuChE) using modified Ellman’s spectrophotometric method. […] The efficacy of inhibitors is expressed as IC50, i.e., the concentration causing 50% inhibition of the enzyme activity. Based on IC50 values for both enzymes, selectivity indexes (SI) as the ratio of IC50 for BuChE/IC50 for AChE to quantify the preference for AChE were calculated (Table 1).
(§2) IC50 values were determined using the spectrophotometric Ellman’s method modified according to Zdražilová et al., which is a simple, rapid and direct method to determine the SH and -S-S- group content. This method is widely used for the screening of the efficiency of cholinesterases inhibitors. The enzymatic activity is measured indirectly by quantifying the concentration of the 5-thio-2-nitrobenzoic acid ion formed in the reaction between the thiol reagent 5,5′-dithio-bis(2-nitrobenzoic acid) and thiocholine, a product of acetylthiocholine substrate hydrolysis by cholinesterases.
(§3) The enzyme activity in final reaction mixture (2000 µL) was 0.2 U/mL, concentration of acetylthiocholine (or butyrylthiocholine) 40 µM and concentration of 5,5′-dithio-bis(2-nitrobenzoic acid) 0.1 mM for all reactions. The tested compounds were dissolved in DMSO and then diluted in demineralized water to the concentration of 1 mM. […] All measurements were carried in triplicates and the average values of reaction rate (v0-uninhibited reaction, vi-inhibited reaction) were used for construction of the dependence v0/vi vs. concentration of inhibitor. From obtained equation of regression curve, IC50 values were calculated.
(§4) Acetylcholinesterase used was obtained from electric eel (Electrophorus electricus L.; EeAChE) and butyrylcholinesterase from equine serum (EqBuChE).

Assay [3] deals with T2, BuChE from equine serum (EqBuChE) (Equus caballus, UniProt P81908).
T2 construct: butyrylcholinesterase from equine serum (EqBuChE); purchased Sigma-Aldrich (Prague, Czech Republic); host or cells: equine serum (natural source)
As to the kind of experiment: biochemical. The settings on record: mean ± SD, n = three independent experiments. The method, then:
as §1, §2, §3, §4

Assay [4] relates to Mycobacterium tuberculosis 331/88 (H37Rv). As to the kind of experiment: In vitro antimycobacterial activity (MIC). Format: cell-based. The note with it: read-out: MIC M. tuberculosis.
Assay [5] relates to M. tuberculosis 331/88, M. avium 330/88, M. kansasii 235/80, M. kansasii 6509/96. Nature of the assay: In vitro antimycobacterial activity (MIC), whole panel, strain not specified. The note with it: panel of four mycobacterial strains; read-out: MIC (mycobacteria, strain not specified). Type of assay: cell-based.

≈ marks a conversion by molar mass, not a printed value. Where two headings read alike, the source gives them in different places.

T1 sequence (O42275 24-633): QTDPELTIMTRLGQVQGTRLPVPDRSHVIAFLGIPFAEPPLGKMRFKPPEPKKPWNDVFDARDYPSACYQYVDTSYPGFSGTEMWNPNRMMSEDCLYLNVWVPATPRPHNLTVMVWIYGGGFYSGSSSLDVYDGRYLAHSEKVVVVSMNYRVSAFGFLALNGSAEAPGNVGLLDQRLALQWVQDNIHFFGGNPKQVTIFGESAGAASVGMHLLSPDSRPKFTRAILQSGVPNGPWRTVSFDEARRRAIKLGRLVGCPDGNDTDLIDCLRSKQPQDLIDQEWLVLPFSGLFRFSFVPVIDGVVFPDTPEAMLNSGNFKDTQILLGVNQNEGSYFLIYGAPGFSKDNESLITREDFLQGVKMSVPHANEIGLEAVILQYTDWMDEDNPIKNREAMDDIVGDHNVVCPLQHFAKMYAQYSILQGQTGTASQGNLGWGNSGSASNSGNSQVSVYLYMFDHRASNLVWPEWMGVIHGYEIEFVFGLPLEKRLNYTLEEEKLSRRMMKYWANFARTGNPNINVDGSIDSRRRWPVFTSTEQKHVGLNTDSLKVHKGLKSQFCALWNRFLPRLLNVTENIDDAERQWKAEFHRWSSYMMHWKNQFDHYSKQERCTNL
T2 sequence (P81908 whole entry): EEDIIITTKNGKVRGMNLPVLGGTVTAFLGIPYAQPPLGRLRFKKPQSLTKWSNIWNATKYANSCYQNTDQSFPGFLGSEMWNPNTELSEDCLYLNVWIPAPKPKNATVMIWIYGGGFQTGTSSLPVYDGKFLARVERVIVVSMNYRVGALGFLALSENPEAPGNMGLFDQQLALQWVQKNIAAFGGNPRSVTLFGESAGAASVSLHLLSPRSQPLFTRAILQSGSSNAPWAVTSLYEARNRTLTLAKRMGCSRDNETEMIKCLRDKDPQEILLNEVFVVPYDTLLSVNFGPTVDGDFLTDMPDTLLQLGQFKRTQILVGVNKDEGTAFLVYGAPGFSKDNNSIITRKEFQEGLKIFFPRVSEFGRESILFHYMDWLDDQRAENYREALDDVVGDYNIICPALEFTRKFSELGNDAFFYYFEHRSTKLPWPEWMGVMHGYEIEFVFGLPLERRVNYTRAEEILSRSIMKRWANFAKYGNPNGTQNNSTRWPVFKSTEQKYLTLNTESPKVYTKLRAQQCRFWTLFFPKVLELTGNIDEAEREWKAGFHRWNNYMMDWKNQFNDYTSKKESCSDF

A word on the MIC: it is the lowest concentration found to suppress growth. The term IC50 denotes the concentration that inhibits the measured activity by half. Regarding `CNC(=O)NNC(=O)c1ccc(C(F)(F)F)cc1` [2a, N-Methyl-2-[4-(trifluoromethyl)benzoyl]hydrazine-1-carboxamide], the minimal inhibitory concentration (MIC) in assay [1] and in assay [4] (H37RV) was 1000 µM (≈ 261 µg/mL) in each case. The IC50 in assay [2] (IC50 AChE) was found to be 31.2 ± 1.87 µM; in assay [3] (IC50 BuChE), 84.2 ± 2.1 µM. The “Selectivity BuChE/AChE (selectivity index, SI)” value in assay [2] was 2.7.

For `CCNC(=O)NNC(=O)c1ccc(C(F)(F)F)cc1` [2b, N-Ethyl-2-[4-(trifluoromethyl)benzoyl]hydrazine-1-carboxamide], the MIC in assay [1] and in assay [4] (H37RV) was 1000 µM (≈ 275 µg/mL) in each case. Further, the results for the IC50 in assay [2] (read-out: IC50 AChE) and in assay [3] (read-out: IC50 BuChE) were 56.32 ± 0.54 µM and 103 ± 2.75 µM, respectively. Moreover, in assay [2], the “Selectivity BuChE/AChE (selectivity index, SI)” value turned out to be 1.8.

For the compound `CCCNC(=O)NNC(=O)c1ccc(C(F)(F)F)cc1` [2c, N-Propyl-2-[4-(trifluoromethyl)benzoyl]hydrazine-1-carboxamide], the IC50 came to 82.3 ± 3.31 µM in assay [2] (read-out: IC50 AChE) and 112.7 ± 0.98 µM in assay [3] (read-out: IC50 BuChE).

As for `CCCCNC(=O)NNC(=O)c1ccc(C(F)(F)F)cc1` [2d, N-Butyl-2-[4-(trifluoromethyl)benzoyl]hydrazine-1-carboxamide], the IC50 in assay [2] (read-out: IC50 AChE) was 38.6 ± 1.32 µM; in assay [3] (read-out: IC50 BuChE), 87.8 ± 7.96 µM. In addition, the “Selectivity BuChE/AChE (selectivity index, SI)” value in assay [2] worked out at 2.3.

In the case of `CCCCCNC(=O)NNC(=O)c1ccc(C(F)(F)F)cc1` [2e, N-Pentyl-2-[4-(trifluoromethyl)benzoyl]hydrazine-1-carboxamide], the IC50 is 43.59 ± 0.41 µM in assay [2] (read-out: IC50 AChE) and 58 µM in assay [3] (read-out: IC50 BuChE). The “Selectivity BuChE/AChE (selectivity index, SI)” value in assay [2] was determined as 1.3.

Consider `CCCCCCNC(=O)NNC(=O)c1ccc(C(F)(F)F)cc1` [2f, N-Hexyl-2-[4-(trifluoromethyl)benzoyl]hydrazine-1-carboxamide], for which the MIC in assay [1] and in assay [4] (H37RV) was 250 µM (≈ 82.8 µg/mL) each time. Also, the values for the half-inhibitory concentration (IC50) in assay [2] (read-out: IC50 AChE) and in assay [3] (read-out: IC50 BuChE) were 49.2 ± 2.36 µM and 72.5 ± 1.51 µM, respectively. Further, the “Selectivity BuChE/AChE (selectivity index, SI)” value in assay [2] was determined as 1.5.

With `CCCCCCCNC(=O)NNC(=O)c1ccc(C(F)(F)F)cc1` [2g, N-Heptyl-2-[4-(trifluoromethyl)benzoyl]hydrazine-1-carboxamide], the IC50 in assay [2] (read-out: IC50 AChE) came to 59.2 ± 2.38 µM; in assay [3] (read-out: IC50 BuChE), 79.3 ± 1.53 µM. In assay [2], the “Selectivity BuChE/AChE (selectivity index, SI)” value worked out at 1.3.

As for `CCCCCCCCNC(=O)NNC(=O)c1ccc(C(F)(F)F)cc1` [2h, N-Octyl-2-[4-(trifluoromethyl)benzoyl]hydrazine-1-carboxamide], the IC50 in assay [2] (read-out: IC50 AChE) worked out at 77 ± 4.75 µM; in assay [3] (read-out: IC50 BuChE) it was 101.3 ± 0.99 µM. For the same compound, the “Selectivity BuChE/AChE (selectivity index, SI)” value in assay [2] came to 1.3.

For `CCCCCCCCCNC(=O)NNC(=O)c1ccc(C(F)(F)F)cc1` [2i, N-Nonyl-2-[4-(trifluoromethyl)benzoyl]hydrazine-1-carboxamide], the values for the IC50 in assay [2] (read-out: IC50 AChE) and in assay [3] (read-out: IC50 BuChE) were 107 µM and 82.2 ± 3.42 µM, respectively. In addition, the “Selectivity BuChE/AChE (selectivity index, SI)” value in assay [2] is listed as 0.8.

Take `CCCCCCCCCCNC(=O)NNC(=O)c1ccc(C(F)(F)F)cc1` [2j, N-Decyl-2-[4-(trifluoromethyl)benzoyl]hydrazine-1-carboxamide]: the IC50 was 49.5 ± 1.74 µM in assay [2] (read-out: IC50 AChE) and 192 ± 6.83 µM in assay [3] (read-out: IC50 BuChE). In assay [2], the “Selectivity BuChE/AChE (selectivity index, SI)” value is recorded as 3.9.

As for `CCCCCCCCCCCNC(=O)NNC(=O)c1ccc(C(F)(F)F)cc1` [2k, 2-[4-(Trifluoromethyl)benzoyl]-N-undecylhydrazine-1-carboxamide], the half-inhibitory concentration (IC50) in assay [2] (read-out: IC50 AChE) turned out to be 40.71 ± 0.37 µM; in assay [3] (read-out: IC50 BuChE) it was 179 ± 2.96 µM. For the same compound, in assay [2], the “Selectivity BuChE/AChE (selectivity index, SI)” value is recorded as 4.4.

As for `CCCCCCCCCCCCNC(=O)NNC(=O)c1ccc(C(F)(F)F)cc1` [2l, N-Dodecyl-2-[4-(trifluoromethyl)benzoyl]hydrazine-1-carboxamide], the IC50 in assay [2] (read-out: IC50 AChE) was 45.2 ± 0.69 µM; in assay [3] (read-out: IC50 BuChE) it was 264.14 ± 0.22 µM. In addition, the “Selectivity BuChE/AChE (selectivity index, SI)” value in assay [2] is 5.8.

In the case of `CCCCCCCCCCCCCNC(=O)NNC(=O)c1ccc(C(F)(F)F)cc1` [2m, N-Tridecyl-2-[4-(trifluoromethyl)benzoyl]hydrazine-1-carboxamide], the IC50 in assay [2] (IC50 AChE) came out at 28.9 ± 0.67 µM; in assay [3] (IC50 BuChE), 278 µM; in assay [3] (read-out: IC50 BuChE) it was 277 ± 10.3 µM. Also, the “Selectivity BuChE/AChE (selectivity index, SI)” value in assay [2] stood at 9.6.

Take `CCCCCCCCCCCCCCNC(=O)NNC(=O)c1ccc(C(F)(F)F)cc1` [2n, N-Tetradecyl-2-[4-(trifluoromethyl)benzoyl]hydrazine-1-carboxamide]: the IC50 in assay [2] (read-out: IC50 AChE) worked out at 38.7 ± 1.14 µM; in assay [3] (read-out: IC50 BuChE), 262 ± 17.2 µM. For the same compound, in assay [2], the “Selectivity BuChE/AChE (selectivity index, SI)” value worked out at 6.8.

With `CCCCCCCCCCCCCCCNC(=O)NNC(=O)c1ccc(C(F)(F)F)cc1` [2o, N-Pentadecyl-2-[4-(trifluoromethyl)benzoyl]hydrazine-1-carboxamide], the IC50 in assay [2] (read-out: IC50 AChE) was 27 µM; in assay [3] (read-out: IC50 BuChE), 233 ± 15.7 µM. Further, the “Selectivity BuChE/AChE (selectivity index, SI)” value in assay [2] is listed as 8.6.

`CCCCCCCCCCCCCCCCNC(=O)NNC(=O)c1ccc(C(F)(F)F)cc1` [2p, N-Hexadecyl-2-[4-(trifluoromethyl)benzoyl]hydrazine-1-carboxamide]: the IC50 was determined as 68.63 ± 0.56 µM in assay [2] (read-out: IC50 AChE) and 187 ± 13.2 µM in assay [3] (read-out: IC50 BuChE). Further, the “Selectivity BuChE/AChE (selectivity index, SI)” value in assay [2] is on record as 2.7.

Take `CCCCCCCCCCCCCCCCCCNC(=O)NNC(=O)c1ccc(C(F)(F)F)cc1` [2q, N-Octadecyl-2-[4-(trifluoromethyl)benzoyl]hydrazine-1-carboxamide]: the IC50 in assay [2] (read-out: IC50 AChE) stood at 72.3 ± 2.01 µM; in assay [3] (read-out: IC50 BuChE) it was 146 ± 2.6 µM. Further, the “Selectivity BuChE/AChE (selectivity index, SI)” value in assay [2] is 2.0.

Turning to `CCCCCC(=O)NNC(=O)c1ccc(C(F)(F)F)cc1` [3a, N′-Hexanoyl-4-(trifluoromethyl)benzohydrazide], the MIC is over 250 µM in assay [1] and 125 µM (≈ 37.8 µg/mL) in assay [4] (H37RV). In addition, the IC50 in assay [2] (read-out: IC50 AChE) was 67.1 ± 3.05 µM; in assay [3] (read-out: IC50 BuChE) it was 110 ± 0.2 µM. For the same compound, the “Selectivity BuChE/AChE (selectivity index, SI)” value in assay [2] amounted to 1.6.

In the case of `CCCCCCCCCCCCCCCC(=O)NNC(=O)c1ccc(C(F)(F)F)cc1` [3b, N′-Palmitoyl-4-(trifluoromethyl)benzohydrazide], the IC50 in assay [2] (read-out: IC50 AChE) came to 91.9 ± 6.79 µM; in assay [3] (read-out: IC50 BuChE) it was 148.6 ± 0.36 µM. Further, in assay [2], the “Selectivity BuChE/AChE (selectivity index, SI)” value was determined as 1.6.

For the compound `CCCCCCNc1nnc(-c2ccc(C(F)(F)F)cc2)o1` [compound 4, N-Hexyl-5-[4-(trifluoromethyl)phenyl]-1,3,4-oxadiazol-2-amine], the MIC in assay [1] was 62.5 to 250 µM (≈ 19.6 to 78.3 µg/mL); in assay [5], at least 62.5 µM; in assay [4] (H37RV), 125 to 250 µM (≈ 39.2 to 78.3 µg/mL). Besides, the figures for the IC50 in assay [2] (read-out: IC50 AChE) and in assay [3] (read-out: IC50 BuChE) were 71.32 ± 0.63 µM and 118 ± 1.46 µM, respectively. In addition, the “Selectivity BuChE/AChE (selectivity index, SI)” value in assay [2] is reported as 1.7.

On to `NNC(=O)c1ccncc1` [isoniazid, isonicotinoylhydrazide, reference compound], for which, in assay [4] (M. tuberculosis 331/88 (H37Rv)), the MIC came to 1 µM (≈ 0.137 µg/mL).

(Values after publication PMC7287908, “N-Alkyl-2-[4-(trifluoromethyl)benzoyl]hydrazine-1-carboxamides and Their Analogues: Synthesis and Multitarget Biological Activity” (Molecules, 2020).)
